This is an account of results in paper PMC5399052, “Integrating in vitro data and physiologically based kinetic (PBK) modelling to assess the in vivo potential developmental toxicity of a series of phenols” (Archives of Toxicology, 2016).

A short description of data set [1]: In vitro placental transport study (BeWo b30 transwell). The note with it: human. The procedure:
BeWo cells (passages 28–31) were cultured in DMEM with […] and supplemented with 10% (v/v) heat-inactivated FCS, 2 mM L-glutamine, 10,000 U/ml penicillin and 10 mg/ml streptomycin and maintained in polystyrene cell culture flasks (Corning, Amsterdam, the Netherlands) in a 5% CO2-humidified atmosphere at 37 °C. Cells were harvested after exposure to a trypsin–EDTA solution. Next, the cells were seeded onto Transwell® inserts (0.4-µm pored polycarbonate membrane, 12 mm diameter), with a density of 10^5 cells/cm^2. Cell culture medium (0.5 and 1.5 ml in the apical and basolateral compartment, respectively) was changed daily.
Transport experiments were performed 6 days post-seeding. The transport buffer consisted of HBSS with 30 mg/ml bovine serum albumin (apical compartment) and 10 mg/ml bovine serum albumin (basolateral compartment) representing mid- and late gestational maternal and embryonic/foetal rat plasma albumin levels, respectively (Honda et al. [2008]; Mcmullin et al. [2008]; Yeoh and Morgan [1974]). The transport experiments were performed for the same compounds and according to the same method as described for the Caco-2 transport experiments, except that only cell layers with a TEER value >190 Ω cm^2 were used for the transport experiments. The BeWo transport studies encompassed four independently performed experiments including two replicates in each assay. Samples were analysed by UPLC–PDA (see “Quantification of analytes” section) for the presence of the test compound and possible metabolites. The apparent permeability coefficients were calculated using the same method as described for the Caco-2 transport experiments.

A short description of data set [2]: in vitro. The note with it: human, Caco-2. The procedure: (§1) Caco-2 cells (passages 37–40) were cultured in DMEM containing 25 mM HEPES (pH 7.4) supplemented with 10% (v/v) heat-inactivated FCS, 4500 mg/l glucose, 2 mM L-glutamine, 1% (v/v) minimal essential medium non-essential amino acids, 10,000 U/ml penicillin and 10 mg/ml streptomycin and maintained in polystyrene cell culture flasks (Corning, Amsterdam, the Netherlands) in a 5% CO2-humidified atmosphere at 37 °C. Cells were harvested after exposure to a trypsin–EDTA solution. Next, the cells were seeded onto Transwell® inserts (0.4 µm pored polycarbonate membrane, 12 mm diameter), at a density of 10^5 cells/cm^2. Cell culture medium (0.5 and 1.5 ml in the apical and basolateral compartment, respectively) was changed every two days.
(§2) Transport experiments were performed between day 20 and 23 post-seeding. Prior to the transport experiments, the cell culture medium was removed and cells were equilibrated in HBSS for 30–45 min in a 5% CO2-humidified atmosphere at 37 °C. In these 45 min, the integrity of the cell monolayer was examined by measuring the Trans Epithelial Electrical Resistance (TEER) of the cell layer using a Millicell ERS-2 Volt–Ohm Meter (Millipore, USA). Only cell layers with a TEER value between 500 and 1000 Ω cm^2 were used for the transport experiments. The transport buffer for the apical compartment consisted of HBSS containing 10 mM HEPES (pH 6.5) and 10 mM sodium taurocholate and the transport buffer for the basolateral compartment consisted of HBSS (pH 7.4) with 30 mg/ml bovine serum albumin. At first, 1.5 ml pre-warmed (37 °C) transport buffer was added to the basolateral compartment. Then, the transport experiments were started by adding 0.5 ml pre-warmed transport buffer containing the test compound (100 µM) to the apical compartment. After 60-min incubation in a 5% CO2-humidified atmosphere at 37 °C, a 75 µl sample was taken from the basolateral compartment and then from the apical compartment. Each sample was added to 150 µl ice-cold methanol, vortexed and put on ice immediately. […] Samples were analysed by UPLC–PDA (see “Quantification of analytes” section) for the presence of the test compound and possible metabolites.
(§3) TEER values were also measured at the end of the transport experiment, during the first washing step and compared to the TEER values measured before the transport experiment in order to assess toxicity of the test compound to the cell monolayer. […]
(§4) The apparent permeability coefficients (P app; cm/s) were calculated using the following algorithm: Papp=ΔQ/Δt/A∗C0 where P app is the apparent permeability coefficient (cm/s), ΔQ/Δt (nmol/s) is the amount of the test compound transported to the receiver chamber in a certain time period, A is the transwell membrane surface area (cm^2) and C 0 is the initial concentration of the test compound in the donor compartment (µM).
(§5) In order to assess the validity of the P app calculations for this experiment, the linearity of transport from the apical to the basolateral side was verified by taking samples from the basolateral side at t = 15, 30, 60 and 90 min, at a test concentration of 100 µM. […] The recovery of the test compound in each transport experiment was calculated with a mass balance equation, taking into account the amount of the test compound in the apical and basolateral compartment and the amount in the cells and/or filter of the Transwell® insert.

Data set [3] relates to Caco-2 cells. Briefly: in vitro. The procedure: as §1, §2, §3, §4, §5
Data set [4] relates to rat. Briefly: In vitro PBK-based reverse dosimetry (predicted developmental toxicity). The note with it: BMDL05 based on Cmax. The procedure:
In vitro concentration–response data obtained with the EST were translated to in vivo dose–response values by applying PBK-based reverse modelling, performed as described by Strikwold et al. ([2013]) with some modifications. […] In vivo albumin and fat levels that are used in the extrapolation rules were adjusted to values that correspond to embryos/foetuses during mid-/late gestation. […] The vitro lipid fraction and albumin levels resembling the situation in the EST were 0.04% and 4.8 mg/ml, respectively (Verwei et al. [2006]).
The BMDL05 values of the in vivo study were derived using the BMDS version 2.6.

By Papp A→B is commonly meant how fast a substance crosses the layer from the apical side. A low value points to slow passage. Consider `Oc1ccccc1` [Phenol], for which the Papp A→B at 60 min, 100 µM in data set [1] was determined as 41.6 ± 3.4 ×10⁻⁶ cm/s; in data set [2] it was 48.4 ± 8.6 ×10⁻⁶ cm/s.
Turning to `Oc1ccc(F)cc1` [p-Fluorophenol, p-fluorophenol], the results for the Papp A→B at 60 min, 100 µM in data set [1] and in data set [2] were 34.2 ± 3.3 ×10⁻⁶ cm/s and 47.7 ± 13.8 ×10⁻⁶ cm/s, respectively. In addition, the “ka, predicted oral absorption coefficient” value in data set [3] (rat, Caco-2, 100 µM) was 7.52 h⁻¹. Further, in data set [4], the “Potency ratio (phenol / p-substituted phenol), in vitro PBK approach” value is recorded as 0.7 fold.
For the compound `CC(=O)c1ccc(O)cc1` [p-Methylketophenol, p-methylketophenol], the “ka, predicted oral absorption coefficient” value in data set [3] (Caco-2) is 8.18 h⁻¹. The “Potency ratio (phenol / p-substituted phenol), in vitro PBK approach” value in data set [4] is listed as 0.5 fold.
